Values after ≈ are worked out from the molar mass of the structure shown. Values joined by “and” are separate entries in the source; they are usually repeats but may differ in a detail not shown here. Equal entries are not always repeated. Where two headings read alike, the source gives them in different places.
Legend:
E. faecalis ATCC-29212 = experiment: MIC testing (broth microdilution, EUCAST); format: cell-based; details: Enterococcus faecalis, ATCC29212, E. faecalis ATCC-29212
Procedure: (§1) Minimal inhibitory concentration (MIC) of the compounds in the present invention was determined using broth microdilution performed according to EUCAST guidelines (ISO20776-1:2019). S. aureus ATCC29213 and E. faecalis ATCC29212 served as quality control strains.

[1] = system: E. faecium DSM-17050 (vancomycin-resistant, VRE); experiment: MIC testing (broth microdilution, EUCAST); format: cell-based; details: Enterococcus faecium
Procedure: as §1

E. faecium DSM-20477 = experiment: MIC testing (broth microdilution, EUCAST); format: cell-based; details: Enterococcus faecium, DSM20477, E. faecium DSM-20477
Procedure: as §1

S. epidermidis DSM-28765 = experiment: MIC testing (broth microdilution, EUCAST); format: cell-based; details: Staphylococcus epidermidis, DSM28765, S. epidermidis DSM-28765; read-out: MIC S. epiderm.
Procedure: as §1

[2] = system: S. aureus N315 (methicillin-resistant, MRSA); experiment: MIC testing (broth microdilution, EUCAST); format: cell-based; details: Staphylococcus aureus, MRSA
Procedure: as §1

S. aureus Newman [3] = experiment: MIC testing (broth microdilution, EUCAST); format: cell-based
Procedure: as §1

zebrafish larvae = experiment: Toxicity in zebrafish larvae (MTC / IC50); format: in vivo
Procedure: For toxicity screening, zebrafish larvae were exposed three days post fertilization and monitored for 48 h until five days post fertilization. All malformations and pathophysiological phenotypes were noted and used to determine the inhibitory concentration (IC50) of the respective derivative against zebrafish larvae. The selectivity index (SI) was then calculated using the IC50 and the MIC of either S. aureus or P. falciparum 3D7.

[4] = system: clinical isolates of S. aureus; experiment: MIC 50/90 profiling in multidrug-resistant clinical isolates; format: cell-based
Procedure: as §1
(§2) Activity of dehalogenil against multidrug-resistant clinical isolates of S. aureus (n=100) and Enterococcus spp. […] Compared to the standard of care (linezolid, daptomycin and tigecyclin), dehalogenil MIC90 was lowered in both pathogens by 20-40-fold with unimodal distribution indicating no pre-existing resistances.

E. faecium = experiment: as above; format: cell-based
Procedure: as §1, §2

[5] = Activity compared with chlorotonil A (general statement); details: vs chlorotonil A
[6] = system: mature gametocytes (stages IV and V); experiment: Activity against mature gametocytes (stage IV-V), bioluminescence assay; format: cell-based, P. falciparum
Procedure: Activity against gametocytes was determined using an in vitro bioluminescence assay as described previously (doi.org/10.1371/journal.pone.0035019).

[7] = In vivo PK after subcutaneous application (50% ClearSol/PBS pH 7.4); design: species or system mouse; details: for Cz / tz / AUC(0-t) / Cmax / Tmax: n = 3; for AUC(0-t) / Cmax / Tmax: mouse, in vivo
Procedure: Dehalogenil was further applied subcutaneously at 5, 10 and 25 mg/kg in 50% ClearSol™/PBS pH 7.4.

S. aureus = experiment: Murine foreign body (catheter) infection model; format: in vivo, mouse
Procedure: In a murine model, infected catheter tubings were implanted under the rodent skin followed by subcutaneous treatment (once per day with 25 mg/kg for six days).
The infection was established using a bacterial inoculum of 1×10^4 colony-forming units (CFU) injected into the lumen of the implanted peripheral venous catheter tubing fragment. Dehalogenil (25 mg/kg) was administered s.c. once per day, starting at 3 h post infection. Linezolid (Zyvoxid, Pfizer) was used as a reference antibiotic. Six days post infection, mice were euthanized, edema sizes around the implanted catheter fragment determined (c), and the catheter fragments and surrounding tissues were explanted. Bacterial loads from catheter detached biofilms (a) and in surrounding tissue homogenates (b) were determined by CFU counting. The data represent the value of every individual animal (symbols) and the median (horizontal lines). […], **p<0.01, ***p<0.001 (Kruskal-Wallis tests followed by Dunn's post hoc test).

P. berghei = P. berghei parasite load in mice; format: in vivo, mouse
CYP3A4 = experiment: Inhibition of CYP3A4; format: in vitro ADME
Procedure: (§3) Complementing the toxicity profiling, ADME properties of the lead dehalogenil were determined. This had not been possible for the first generation frontrunner ChB1-Epo2 or the natural product ChA because of their poor limit of detection. […] Across species (mouse, rat, human), metabolic stability is high while plasma stability is moderate. Besides, no hemolysis and no inhibition of the metabolically important enzyme CYP3A4 was observed by both dehalogenil and ChA. Plasma protein binding (PPB) is >99.4% in all species.

Inhibition of CYP3A4 = format: in vitro ADME; details: cyp3a4
Procedure: as §3

S. aureus Newman [8] = experiment: MIC in presence of fetal bovine serum (FBS); format: cell-based; details: for MIC: Staphylococcus aureus, NEWMAN, read-out: MIC against S. aureus Newman
Procedure: as §1

[9] = Staphylococcus aureus, S. aureus clinical isolates (n = 100)
[10] = Enterococcus faecium, E. faecium (n = 98)
[11] = 25 mg/kg SC once per day, six days

CC1=CC(C)C2C(C=CC3C(C)C=CC=CC(C)OC(=O)C(C)C(=O)CC(=O)C32)C1 (stereo not drawn) [dehalogenil]
MIC (E. faecalis ATCC-29212): 0.1 µg/mL (≈ 0.244 µM) | MIC [1]: 0.1 µg/mL (≈ 0.244 µM) | MIC (E. faecium DSM-20477): 0.025 µg/mL (≈ 0.0609 µM) | MIC (S. epidermidis DSM-28765): 0.2 µg/mL (≈ 0.487 µM) | MIC [2]: 0.05 µg/mL (≈ 0.122 µM) | MIC S. aureus (S. aureus Newman [3]): 0.05 µg/mL (≈ 0.122 µM) | toxic effects in zebrafish (zebrafish larvae; 5-10 μg/mL): no toxic effects | IC50 in zebrafish larvae (zebrafish larvae; exposed 3 days post fertilization, monitored 48 h): 27.4 µM | Selectivity Index S. aureus (zebrafish larvae; zebrafish IC50 / MIC S. aureus Newman): 224.8 | Selectivity Index P. falc 3D7 (zebrafish larvae; zebrafish IC50 vs P. falciparum 3D7): 5479.6 | MIC [4, 9]: 0.025 to 0.4 µg/mL (≈ 0.0609 to 0.974 µM) | MIC50 [4, 9]: 0.1 µg/mL (≈ 0.244 µM) | MIC90 [4, 9]: 0.2 µg/mL (≈ 0.487 µM) | MIC90 lowered compared to standard of care ([4]; vs linezolid, daptomycin and tigecyclin, S. aureus (n=100)): 20-40 fold | MIC (E. faecium; Enterococcus faecium, read-out: MIC range): 0.00625 to 0.2 µg/mL (≈ 0.0152 to 0.487 µM) | MIC50 (E. faecium; [10]): 0.025 µg/mL (≈ 0.0609 µM) | MIC90 (E. faecium; [10]): 0.1 µg/mL (≈ 0.244 µM) | MIC90 lowered compared to standard of care (E. faecium; vs linezolid, daptomycin and tigecyclin, Enterococcus spp. (n=98)): 20-40 fold | activity compared to chlorotonil A [5]: activity similar to chlorotonil A | IC50 [6]: 0.0058 µM | Cz ([7]; mice, 5 mg/kg sc): 109.0 ng/mL | tz ([7]; mice, 5 mg/kg sc): 24.0 h | Cz ([7]; mice, 10 mg/kg sc): 257.0 ng/mL | tz ([7]; mice, 10 mg/kg sc): 24.0 h | Plasma levels, subcutaneous vs intravenous ([7]; mice, 25 mg/kg sc vs 7.5 mg/kg iv): comparable to 7.5 mg/kg dehalogenil applied intravenously | Cz ([7]; mice, 25 mg/kg sc): 595 ng/mL | tz ([7]; mice, 25 mg/kg sc): 24.0 h | Dose response after subcutaneous application ([7]; mice, 5, 10 and 25 mg/kg sc): suitable dose response | AUC(0-t) ([7]; mice, 5 mg/kg sc): 2690 ng·h/mL | Cmax ([7]; mice, 5 mg/kg sc): 125 ng/mL | Tmax ([7]; mice, 5 mg/kg sc): 7 h | AUC(0-t) ([7]; mice, 10 mg/kg sc): 8090 ng·h/mL | Cmax ([7]; mice, 10 mg/kg sc): 488 ng/mL | Tmax ([7]; mice, 10 mg/kg sc): 3 h | AUC(0-t) ([7]; mice, 25 mg/kg sc): 18500 ng·h/mL | Cmax ([7]; mice, 25 mg/kg sc): 1200 ng/mL | Tmax ([7]; mice, 25 mg/kg sc): 3 h | reduction in bacterial loads in the tissues surrounding the catheter fragments (S. aureus; [11]): > 3 log10 and 3.24 log10 | reduction in bacterial loads on the catheter fragments (S. aureus; [11]): > 3 log10 and 3.85 log10 | bacterial load at the site of infection and on the implant (S. aureus; 6×25 mg/kg SC): significantly reducing bacterial loads | reduction of P. berghei parasite load (P. berghei): > 99% | inhibition of CYP3A4 (CYP3A4): no inhibition | IC50 (Inhibition of CYP3A4): 16.4 µM | MIC (S. aureus Newman [8]; MHB2 + 5% FBS): 2 µg/mL | MIC (S. aureus Newman [8]; MHB2 + 10% FBS): 4 µg/mL | MIC (S. aureus Newman [8]; MHB2 + 20% FBS): 4 µg/mL | MIC (S. aureus Newman [8]; MHB2 + 30% FBS): 8 µg/mL | MIC (S. aureus Newman [8]; MHB2 + 40% FBS): 8 µg/mL | MIC (S. aureus Newman [8]; MHB2 + 50% FBS): > 8 µg/mL | MIC (S. aureus Newman [8]; MHB2, no FBS): 0.0625 µg/mL | Activity in presence of FBS (S. aureus Newman [8]; above 20% FBS): remained active above 20% FBS
